{"source": "ChEMBL document CHEMBL3739341", "about": "“Calycosin inhibits oxidative stress-induced cardiomyocyte apoptosis via activating estrogen receptor-α/β” (Bioorg Med Chem Lett, 2016)", "key": {"[1]": {"system": "H9c2", "assay": "Upregulation of ER-alpha expression in rat H9c2 cells after 24 hrs by western blot analysis", "type": "functional, cell-based"}, "[2]": {"system": "H9c2", "assay": "Upregulation of ER-beta expression in rat H9c2 cells after 24 hrs by western blot analysis", "type": "functional, cell-based"}, "[3]": {"system": "H9c2", "assay": "Inhibition of H2O2-induced loss of cell viability in rat H9c2 cells at 5,10 and 20 uM after 24 hrs by MTT assay", "type": "functional, cell-based"}, "[4]": {"system": "H9c2", "assay": "Inhibition of H2O2-induced apoptosis in rat H9c2 cells after 24 hrs by AO/EB staining based fluorescence microscopic analysis", "type": "functional, cell-based"}, "[5]": {"system": "H9c2", "assay": "Inhibition of H2O2-induced loss of cell viability in rat H9c2 cells at 5,10 and 20 uM after 24 hrs by MTT assay in presence of ER inhibitor ICI182780", "type": "functional, cell-based"}, "[6]": {"system": "H9c2", "assay": "Inhibition of H2O2-induced apoptosis in rat H9c2 cells at 5,10 and 20 uM after 24 hrs by AO/EB staining based fluorescence microscopic analysis in presence of ER inhibitor ICI182780", "type": "functional, cell-based"}, "[7]": {"biological_target": "T1, Estrogen receptor (Rattus norvegicus) (UniProt P06211+Q62986)", "assay": "Activation of ER-alpha/beta in rat H9c2 cells assessed as increase in phosphorylated Akt level after 24 hrs by western blot analysis", "type": "cell-based"}, "[8]": {"biological_target": "T1, Estrogen receptor (Rattus norvegicus)", "assay": "Activation of ER-alpha/beta in rat H9c2 cells assessed as phosphorylated Akt level at 5,10 and 20 uM after 24 hrs by western blot analysis in presence of ER inhibitor ICI182780", "type": "cell-based"}}, "note": "Calls of active or inactive are those of the source. The calls are words filed in the database; no cut-off is given here.", "data": [{"compound": "COc1ccc(-c2coc3cc(O)ccc3c2=O)cc1O", "values": [{"measurement": "Activity", "setting": "[1]", "value": "Dose-dependent effect"}, {"measurement": "Activity", "setting": "[2]", "value": "Dose-dependent effect"}, {"measurement": "inhibition", "setting": "[3]", "value": "Active"}, {"measurement": "inhibition", "setting": "[4]", "value": "Dose-dependent effect"}, {"measurement": "inhibition", "setting": "[5]", "value": "inactive"}, {"measurement": "inhibition", "setting": "[6]", "value": "inactive"}, {"measurement": "Activity", "setting": "[7]", "value": "Active"}, {"measurement": "Activity", "setting": "[8]", "value": "inactive"}]}]}
